Data on two molecules can be found in ChEMBL document CHEMBL4190380, “Preliminary in vitro and in vivo investigation of a potent platelet derived growth factor receptor (PDGFR) family kinase inhibitor” (Bioorg Med Chem Lett, 2018).

Activity calls are given as the source filed them. No cut-off for these calls is given here.

Series [1] relates to P815. The series can be described thus: Cytotoxicity in mouse P815 cells expressing KIT D814Y mutant assessed as reduction in cell viability incubated for 48 hrs by MTT assay. The format is functional, cell-based. To be noted: P815, 48 h. In general terms: Tetrazolium dyes change colour on reduction, which living cells bring about.
In series [2] the target is Platelet-derived growth factor receptor beta (Homo sapiens, UniProt P09619). Nature of the series: Binding affinity to PDGFRbeta (unknown origin).
For series [3], the system named is Mast/stem cell growth factor receptor Kit (Mus musculus), P05532 [D814Y]. Nature of the series: Inhibition of KIT D814Y mutant in mouse P815 cells assessed as reduction in STAT3 Tyr705 phosphorylation at 500 nM to 5 uM by Western blot method. The class given is cell-based. (In general: Immunoblotting shows a protein as a band on a membrane.)
Series [4] concerns Mus musculus. The series can be described thus: Toxicity in C57BL/6 mouse assessed as body weight loss at 75 mg/kg, ip for 17 days. As to conditions: in vivo, 408 h. The format is organism-based.
Series [5] relates to Mus musculus. Nature of the series: In-vivo suppression of PDGFR signalling in C57BL/6 mouse assessed as retardation of hair re-growth at 75 mg/kg, ip administered once daily for 17 days by photography. The class given is functional, organism-based.
Series [6] deals with Mus musculus. Nature of the series: Toxicity in C57BL/6 mouse assessed as induction of mouse mortality at 400 mg/kg, ip for 17 days measured on day 0. The class given is organism-based. To be noted: in vivo, 408 h.
Series [7] deals with P815. Nature of the series: Induction of apoptosis in mouse P815 cells expressing KIT D814Y mutant assessed as reduction in pro-caspase-3 protein level at 500 nM to 5 uM by Western blot method. The class given is functional, cell-based.
In series [8] the test system is Mus musculus. The series can be described thus: In-vivo suppression of KIT signalling in C57BL/6 mouse assessed as hair depigmentation at 75 mg/kg, ip administered once daily for 17 days by photography. The class given is functional, organism-based.
In series [9] the test system is P815. Nature of the series: Toxicity in mouse P815 cells expressing KIT D814Y mutant assessed as reduction in total STAT3 protein level at 5 uM by Western blot method. The class given is cell-based. As to conditions: p815, 5 µM.

Platelet-derived growth factor receptor beta, sequence (P09619 whole entry): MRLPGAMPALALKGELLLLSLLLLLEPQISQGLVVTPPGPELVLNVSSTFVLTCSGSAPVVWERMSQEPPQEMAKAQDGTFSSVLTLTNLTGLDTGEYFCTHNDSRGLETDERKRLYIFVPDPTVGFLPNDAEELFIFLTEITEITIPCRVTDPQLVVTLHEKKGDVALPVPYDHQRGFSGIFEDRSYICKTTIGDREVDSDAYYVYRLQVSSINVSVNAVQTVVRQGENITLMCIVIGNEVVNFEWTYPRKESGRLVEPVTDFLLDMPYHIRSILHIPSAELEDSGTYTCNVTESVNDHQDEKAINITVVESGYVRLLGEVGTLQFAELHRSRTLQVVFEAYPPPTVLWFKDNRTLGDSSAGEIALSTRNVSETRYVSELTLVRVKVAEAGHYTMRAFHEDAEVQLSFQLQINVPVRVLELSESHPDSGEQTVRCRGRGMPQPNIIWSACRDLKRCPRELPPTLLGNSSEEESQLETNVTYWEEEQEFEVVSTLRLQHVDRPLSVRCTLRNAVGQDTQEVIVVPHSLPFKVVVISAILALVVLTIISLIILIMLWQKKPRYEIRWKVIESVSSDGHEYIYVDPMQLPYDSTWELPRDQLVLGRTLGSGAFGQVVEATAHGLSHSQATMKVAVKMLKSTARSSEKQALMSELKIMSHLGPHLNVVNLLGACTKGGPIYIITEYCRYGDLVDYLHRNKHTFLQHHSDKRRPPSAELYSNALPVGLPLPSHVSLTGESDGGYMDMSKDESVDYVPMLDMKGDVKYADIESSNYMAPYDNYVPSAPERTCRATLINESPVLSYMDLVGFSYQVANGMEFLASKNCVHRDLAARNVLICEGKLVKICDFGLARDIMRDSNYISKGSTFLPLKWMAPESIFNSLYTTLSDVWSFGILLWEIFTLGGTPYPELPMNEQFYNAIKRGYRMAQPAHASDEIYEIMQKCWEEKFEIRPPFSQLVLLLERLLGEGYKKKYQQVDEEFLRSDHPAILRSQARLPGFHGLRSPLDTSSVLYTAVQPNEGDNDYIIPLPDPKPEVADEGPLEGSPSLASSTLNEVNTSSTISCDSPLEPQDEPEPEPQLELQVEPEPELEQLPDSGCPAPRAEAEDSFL
Mast/stem cell growth factor receptor Kit (Mus musculus), P05532 [D814Y], sequence (P05532 with tags, fused parts or gaps D814Y): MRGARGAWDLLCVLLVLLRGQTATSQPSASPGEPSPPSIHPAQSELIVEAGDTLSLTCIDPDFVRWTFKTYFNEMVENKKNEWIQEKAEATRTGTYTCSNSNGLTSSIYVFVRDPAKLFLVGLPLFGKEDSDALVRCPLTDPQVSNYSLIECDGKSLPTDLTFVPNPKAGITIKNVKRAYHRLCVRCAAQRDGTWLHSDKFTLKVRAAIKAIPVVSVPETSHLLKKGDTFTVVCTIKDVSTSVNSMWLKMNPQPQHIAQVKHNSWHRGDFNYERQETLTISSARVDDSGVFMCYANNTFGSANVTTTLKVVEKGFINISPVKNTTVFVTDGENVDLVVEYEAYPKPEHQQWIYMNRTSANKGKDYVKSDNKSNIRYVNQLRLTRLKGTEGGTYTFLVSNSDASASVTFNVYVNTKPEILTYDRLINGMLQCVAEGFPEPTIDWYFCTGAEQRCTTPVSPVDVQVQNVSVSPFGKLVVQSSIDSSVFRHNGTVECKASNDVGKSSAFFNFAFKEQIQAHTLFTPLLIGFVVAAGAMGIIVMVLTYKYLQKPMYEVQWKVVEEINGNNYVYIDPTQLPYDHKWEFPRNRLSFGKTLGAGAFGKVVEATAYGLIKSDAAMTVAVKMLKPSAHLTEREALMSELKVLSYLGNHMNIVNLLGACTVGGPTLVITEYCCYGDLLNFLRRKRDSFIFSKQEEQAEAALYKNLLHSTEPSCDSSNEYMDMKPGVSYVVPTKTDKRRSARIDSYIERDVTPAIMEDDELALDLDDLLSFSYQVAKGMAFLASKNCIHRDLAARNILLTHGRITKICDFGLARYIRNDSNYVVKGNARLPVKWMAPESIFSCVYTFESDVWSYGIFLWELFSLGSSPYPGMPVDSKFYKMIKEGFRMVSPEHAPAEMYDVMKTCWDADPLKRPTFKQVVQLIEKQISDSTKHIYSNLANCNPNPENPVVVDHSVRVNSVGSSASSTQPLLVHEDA

As for `COc1cc2c(N3CCN(C(=O)Nc4ccc(OC(C)C)cc4)CC3)ncnc2cc1OCCCN1CCCCC1` [TANDUTINIB], the IC50 in the series with P815 [1] came out at 600 nM.
The molecule `COCCOc1cc2ncnc(N3CCN(c4ncc(Cc5ccccc5)cn4)CC3)c2cc1OCCOC` came in with a Kd in series [2] of 8 nM. Moreover, the inhibition result in series [3] is “Active”. For the same molecule, the Activity with Mus musculus [4] was 10%; in the series with Mus musculus [6], “Toxic”; with P815 [7], “Dose-dependent effect”; with P815 [9] it was “Toxic”. In the series on Mus musculus [5], the result was Active. In the series with P815 [1], the IC50 came out at 182 nM. For the same molecule, the result in the series with Mus musculus [8] was inactive.

One may read the IC50 as the concentration that inhibits the measured activity by half. By Kd is commonly meant the equilibrium constant for the complex coming apart. Lower therefore signals higher affinity.
